The target in data set [1] is steroid site on the GABAA receptor-chloride channel complex. Nature of the data set: [35S]TBPS binding assay. Also noted: species or system Male Sprague-Dawley rats. The conditions noted are these: inhibition of [35S]TBPS (2 nM) binding, rat cerebral cortex P2 membranes, 5 µM GABA, 90 minute incubation at 22°C. As for the experimental part:
TBPS binding assays were conducted according to the following procedures, which are described in Gee, K.W.; Lawrence, L.J.; and Yamamura, H. I., "Modulation of the Chloride Ionophore by Benzodiazepine Receptor Ligands Influence of Gamma-Aminobutyric Acid and Ligand Efficacy," Molecular Pharmacology, 30:218, 1986. Male Sprague-Dawley rats (200-250g) were anesthetized with carbon dioxide and decapitated. The rats' brains were removed and the cerebral cortices were dissected and homogenized in 10 volumes of 0.32 M sucrose. Tissue was centrifuged at 1000 x g for 10 minutes and the resultant supernatant was centrifuged at 9,000 g for 20 minutes. The resultant pellet was resuspended in 10 volumes of 200 mM NaCl/50 mM Na-K phosphate pH 7.4 buffer (binding buffer) and then centrifuged at 9,000 x g for 10 minutes. This washing procedure was repeated twice and the final P2 pellet was resuspended in the binding buffer. For the binding assay, [^35S] TBPS (2 nM) was co-incubated in binding buffer with P2 membranes and 5 µM GABA and either 1) no additions to measure total binding; 2) 2 µM unlabeled TPBS to measure nonspecific binding; 3) the neurosteroid ranging in concentration from 1 Nm to 10µM. Following a 90 minute incubation at 22°C, the suspension was filtered and the bound radioactivity was determined by liquid scintillation counting. […] A lower IC50 indicates higher affinity for the steroid site on the GABAA receptor-chloride channel complex. Table 1 gives the IC50 values of representative steroids used in the present invention.

Data set [2] has as its system rats. Nature of the data set: Rat sleep-wake bioassay (EEG, EMG, locomotor activity, body temperature). In kind it is in vivo, Wistar rats. The conditions noted are these: for LMA versus vehicle control: administered at CT-5, first hour after treatment. As for the experimental part: Rat preparation, monitoring, and analysis of the data was conducted as described below. […] Body temperature and locomotor activity were monitored via a miniature transmitter (Minimitter) surgically placed in the abdomen. The cranial implant consisted of stainless steel screws (2 frontal [+3.9 AP form bregma, ±2.0 ML] and two occipital [-6.4 AP, ±5.5 ML]) for EEG recording. Two Teflon-coated steel wires were positioned under the nuchal trapezoid muscles for EMG recording. All leads were soldered to a miniature connector prior to surgery, and chemically sterilized in Glutarex (3M Co.). The implant assembly was affixed to the skull with dental acrylic. A minimum of three weeks was allowed for recovery.
Each rat was permanently housed in its own individual recording cage located within separate, ventilated compartments of custom-designed stainless steel cabinets. Each Nalgene microisolator cage, which is an individual recording cage, was enhanced with a filter-top riser and swivel-commutator. Food and water were available ad libitum. […] Animals were undisturbed for three days both before and after treatments. In practice, animals were undisturbed during the weekend. Treatments were administered on Monday evening or Tuesday morning, and the animals were again left undisturbed until Friday, when cages were cleaned and the data copied off the computers.
The computers monitored the EEG, EMG, body temperature and non-specific locomotor activity (LMA) via telemetry, and drinking activity from 48 rats simultaneously. The computer classified the arousal state every 10 seconds using pattern-matching algorithms which included behavior-dependent contextual rules. Drinking and LMA were recorded every 10 seconds, while body temperature was recorded every minute.
Therefore, time of treatment is important. By administering the drug at CT-18, which is the peak of the rat's activity dominated period, the natural tendency for the rats to sleep at lights on ([…] clock time or Circadian Time, CT-0) cannot mask the hypnotic activity of the drug. By administering the drug at CT-5 when the propensity for REM sleep is greatest, the drug's effect on REM sleep can be measured more accurately. The activity dominated period begins when the lights are turned off at CT-12 or 15:00 clock time on the Figures.
The drugs and controls were injected intraperitoneally or administered orally in a volume of 1 ml/kg or […], respectively, under dim red illumination for the CT-18 studies or under regular light for the CT-5 studies.
A matched control group, N=20, was selected from a pool of 60 available control candidates. These matched control groups were constructed as follows.

[3] abbreviates: administered at CT-18, first few hours after administration.

Entries after “also recorded” stand apart in the source; their conditions may differ. Like-named read-outs stand apart in the source and are kept apart here.

As to `C#C[C@@]1(O)CC[C@H]2[C@H](CC[C@@H]3[C@@H]2CC[C@]2(C)/C(=C\C)CC[C@@H]32)C1` [3β-Ethynyl-3α-hydroxy-5β-19-nor-pregn-17(z)-ene], the 50% inhibitory concentration (IC50) in data set [1] is 0.46 µM. This counts as sub-micromolar.
Take `C#C[C@@]1(O)CC[C@H]2[C@H](CC[C@@H]3[C@@H]2CC[C@]2(C)[C@@H](C(C)=O)CC[C@@H]32)C1` [3β-Ethynyl-3α-hydroxy-19-nor-5β-pregnan-20-one]: the half-maximal inhibitory concentration (IC50) in data set [1] worked out at 0.044 µM.
`COc1ccc(C#C[C@@]2(O)CC[C@@]3(C)[C@H](CC[C@@H]4[C@@H]3CC[C@]3(C)[C@@H](C(C)=O)CC[C@@H]43)C2)cc1OC` [3β-[(3',4'-Dimethoxyphenyl)ethynyl] -3α-hydroxy-5/3-pregnan-20-one] gave an IC50 in data set [1] of 0.283 µM.
`CC(=O)[C@H]1CC[C@H]2[C@@H]3CC[C@H]4C[C@@](O)(CN=[N+]=[N-])CC[C@]4(C)[C@H]3CC[C@]12C` [3β-azidomethyl-3α-hydroxy-5α-pregnan-20-one] registered an IC50 in data set [1] of 0.034 µM.
Regarding `CC(=O)[C@H]1CC[C@H]2[C@@H]3CC[C@H]4C[C@@](O)(CC#N)CC[C@]4(C)[C@H]3CC[C@]12C` [3β-cyanomethyl-3α-hydroxy-5α-pregnan-20-one], in data set [1], the IC50 was 0.439 µM. Against the preceding molecule, the IC50 is about 13-fold higher.
Take `C#C[C@@]1(O)CC[C@@]2(C)[C@@H](CC[C@@H]3[C@@H]2CC[C@]2(C)[C@@H](C(C)=O)CC[C@@H]32)C1` [3β-ethynyl-3α-hydroxy-5α-pregnan-20-one, 3β-Ethynyl-3α-hydroxy-5α-pregnan-20-one]: the REM sleep entry in data set [2] is “slight REM-interference”. Besides, the NREM sleep result in data set [2] (administered at CT-5 or CT-18) is listed as “potent NREM-promoting effect”.
Regarding `Cc1cccc([C@H](C)c2cnc[nH]2)c1C` [Dexmedetomidine, reference compound], in data set [2], the REM sleep entry is “strongly interfered with REM sleep” and the “rebound insomnia / rebound wakefulness / rebound effects” value is listed as “strong rebound effects”.
For `Cc1nnc2n1-c1ccc(Cl)cc1C(c1ccccc1Cl)=NC2` [Triazolam, reference compound], in data set [2], the “LMA after the hypnotic action has worn off” value was “reduced body temperature and locomotor activity”; the body temperature entry is given as “affect body temperature; also recorded: reduced body temperature”; the “LMA versus vehicle control” value is “reduced LMA below vehicle control levels”. Besides, in data set [2] (administered at CT-5), the “NREM sleep / hypnotic effect” value is “no hypnotic effect”. Also, the REM sleep entry in data set [2] (setting [3]) is listed as “reduced REM sleep”.
Regarding `Cc1ccc(-c2nc3ccc(C)cn3c2CC(=O)N(C)C)cc1` [Zolpidem, reference compound], in data set [2], the “LMA after the hypnotic action has worn off” value is “continues to depress LMA; also recorded: reduced body temperature and locomotor activity”; the REM sleep entry is “strongly interfered with REM sleep”; the body temperature result was “affect body temperature; also recorded: reduced body temperature”; the “rebound insomnia / rebound wakefulness / rebound effects” value is “did not produce rebound insomnia”. In addition, the “LMA versus vehicle control” value in data set [2] is “reduced LMA below vehicle control levels”. For the same molecule, in data set [2] (administered at CT-5), the “NREM sleep / hypnotic effect” value is recorded as “unable to effectively induce NREM sleep” and the REM sleep result is listed as “interferes with REM sleep”. Further, the REM sleep result in data set [2] (setting [3]) is given as “reduced REM sleep”.

The values above are taken from EP0701444B1, “METHODS AND COMPOSITIONS FOR INDUCING SLEEP” (Purdue Pharma Ltd., priority 1993, dated 1994).
